Here are results for five molecules from publication PMC3870587 (Biochemistry, 2013).

Several values for one entry are separate records, joined by “and”; a condition that tells them apart may be missing. Equal values may be shown once.

Usually Km stands for the substrate concentration at which the rate is half of its maximum. What is called Kd is the free concentration of one partner at which half of the binding sites on the other are occupied at equilibrium, for simple one-to-one binding.

For assay [1], the target named is T1, human MTAP (apo) (Homo sapiens, UniProt Q13126).
T1 sequence (Q13126 1-283): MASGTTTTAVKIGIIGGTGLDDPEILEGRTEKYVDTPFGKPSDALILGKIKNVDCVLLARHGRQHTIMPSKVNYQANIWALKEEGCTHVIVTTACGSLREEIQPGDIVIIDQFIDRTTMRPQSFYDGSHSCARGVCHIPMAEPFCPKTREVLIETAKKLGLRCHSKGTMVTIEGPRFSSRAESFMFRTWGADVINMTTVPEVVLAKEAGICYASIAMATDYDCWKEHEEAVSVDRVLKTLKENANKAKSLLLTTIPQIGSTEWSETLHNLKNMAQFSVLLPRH
Kind of assay: Isothermal titration calorimetry of ligands binding to apo MTAP in Hepes buffer. As to conditions: for ΔΔG relative to MTA; contribution of the 9-deazaadenine (protonated N7): binding to apo MTAP, ΔG of MTA subtracted. A general note: Isothermal titration calorimetry measures the heat released or taken up as one component is titrated into another.

For the next assay, the system named is MTAP. As to conditions: steady-state kinetic analysis; ref [7],[12]; cited from earlier work.
The target in assay [2] is T1, human MTAP (apo). Nature of the assay: Isothermal titration calorimetry of ligands binding to apo MTAP in Tris buffer. Conditions: for ΔHTris [n] / −TΔSTris: apo MTAP; for ΔHTris [n]: Tris buffer pH 7.4; for −TΔSTris: Tris; for ΔHcorrection share of total binding free energy: binding to apo MTAP; for ΔHcorrection / −TΔScorrection: without protonation/deprotonation effects.

Assay [3] has as its system MTAP:phosphate complex. Nature of the assay: Binding of TS analogues to the MTAP:phosphate complex. Also on record: species or system human. Conditions: from 40 nM to 90 pM.
Assay [4] concerns the target MTAP:phosphate complex. As to conditions: read-out: dissociation constant (Kd); binding to MTAP:phosphate, ternary complex; ref [9],[10],[11]; cited from earlier work.
Assay [5] deals with human head and neck cancer. As to conditions: immunodeficient mice; ref [4],[5]; cited from earlier work.
The subject of the next assay is human lung cancer. As to conditions: immunodeficient mice; ref [4],[5]; cited from earlier work.
Where [6] appears, read: apo MTAP, Hepes, all three sites or first-listed set of sites.
The mark [7] stands for this setting: apo MTAP, Hepes, second-listed set of sites.
The mark [8] stands for this setting: all three sites or first two sites.
[9] abbreviates: all three sites [3] or first two sites [2].

With “5'-methylthioadenosine [MTA, reference compound]”, on human MTAP (apo) [1] (setting [6]), the ΔG is -11.1 kcal/mol and -11.1 ± 0.4 kcal/mol; the ΔHHepes was -1.0 ± 0.3 kcal/mol; the “−TΔSHepes” value was -10.1 kcal/mol and -10.1 ± 0.5 kcal/mol. On human MTAP (apo) [1] (setting [7]), the ΔG is -8.4 ± 0.1 kcal/mol, the ΔHHepes was -6.1 ± 0.2 kcal/mol and the “−TΔSHepes” value was -2.3 ± 0.2 kcal/mol. In addition, the Km in the assay with MTAP was 1.7 µM.
For `CSC[C@H]1CN(Cc2c[nH]c3c(N)ncnc23)C[C@@H]1O` [MT-DADMe-ImmA], at human MTAP (apo) [1] (setting [6]), the ΔG is -10.1 kcal/mol and -10.1 ± 0.2 kcal/mol; the ΔHHepes was -10.2 ± 0.8 kcal/mol; the “−TΔSHepes” value amounted to 0.1 ± 0.8 kcal/mol. For the same molecule, on human MTAP (apo) [1] (setting [7]), the ΔG was -9.5 ± 0.1 kcal/mol, the ΔHHepes is -3 ± 1 kcal/mol and the “−TΔSHepes” value was -7 ± 1 kcal/mol. On human MTAP (apo) [1], the “ΔΔG relative to MTA; contribution of the 9-deazaadenine (protonated N7)” value is -1.7 kcal/mol. Also, on human MTAP (apo) [2] (setting [8]), the “NumberProton (protons released from the binding of ligand to MTAP)” value (shortened to “NumberProton”) is 0.2 and 0.2 ± 0.1; the “ΔHTris - ΔHHepes” value is -1.2 ± 0.8 kcal/mol; the “−TΔSTris” value was found to be 1.3 ± 0.3 kcal/mol; the ΔHcorrection was -9.2 kcal/mol and -9.2 ± 0.9 kcal/mol. The “−TΔScorrection” value on human MTAP (apo) [2] (setting [8]) is -0.9 ± 0.9 kcal/mol. The “ΔHTris [n]” value on human MTAP (apo) [2] (setting [9]) was -11.4 ± 0.2 kcal/mol. Besides, the “ΔHTris [n]” value at human MTAP (apo) [2] (third site [1]) is -10.3 ± 0.4 kcal/mol. Also, on human MTAP (apo) [2] (third site), the “−TΔSTris” value is recorded as 0.8 ± 0.4 kcal/mol; the “NumberProton” value is 1.1 and 1.1 ± 0.2; the “ΔHTris - ΔHHepes” value was -7 ± 1 kcal/mol; the ΔHcorrection is listed as 2 ± 1 kcal/mol. Also, the “−TΔScorrection” value at human MTAP (apo) [2] (third site) is -12 ± 1 kcal/mol. Further, at human MTAP (apo) [2], the “ΔHcorrection share of total binding free energy” value is 91%. The “decrease of Kd, apo MTAP to ternary complex with phosphate” value in the assay on MTAP:phosphate complex [3] was 440 fold. Further, at MTAP:phosphate complex [4], the equilibrium dissociation constant (Kd) is 0.09 nM. The “effect on human head and neck cancer” value in assay [5] is “causes remission of human head and neck cancer”. In addition, the “effect on human lung cancer” value with human lung cancer is “suppresses the growth and metastases of human lung cancer”.
Regarding `CSCC1NC(c2c[nH]c3c(N)ncnc23)[C@@H](O)[C@H]1O` (stereo partly shown) [MT-ImmA], at human MTAP (apo) [1] (setting [6]), the ΔG was -9.7 ± 0.1 kcal/mol, the ΔHHepes is -9.59 ± 0.08 kcal/mol and the “−TΔSHepes” value was -0.1 ± 0.1 kcal/mol. The “ΔΔG relative to MTA; contribution of the 9-deazaadenine (protonated N7)” value on human MTAP (apo) [1] was -1.3 kcal/mol. In addition, on human MTAP (apo) [2] (setting [8]), the “NumberProton” value was 0.5 and 0.50 ± 0.01; the “ΔHTris - ΔHHepes” value was -3.23 ± 0.09 kcal/mol; the “−TΔSTris” value came out at 3.1 ± 0.1 kcal/mol; the ΔHcorrection is -7.15 kcal/mol and -7.15 ± 0.09 kcal/mol. Further, the “−TΔScorrection” value at human MTAP (apo) [2] (setting [8]) is -2.6 ± 0.1 kcal/mol. For the same molecule, the “ΔHTris [n]” value at human MTAP (apo) [2] (setting [9]) is −12.82 ± 0.05 [3] kcal/mol. In addition, the “ΔHcorrection share of total binding free energy” value on human MTAP (apo) [2] stood at 74%. At MTAP:phosphate complex [4], the equilibrium dissociation constant (Kd) is 1 nM.
For the molecule `Nc1ncnc2c(CN3CC(CSc4ccc(Cl)cc4)[C@H](O)C3)c[nH]c12` (stereo partly shown) [pClPhT-DADMe-ImmA], at MTAP:phosphate complex [4], the dissociation constant Kd is 0.01 nM.
The molecule `O=P(O)(O)O` [phosphate, potassium phosphate] gave a Kd at human MTAP (apo) [1] (apo MTAP, Hepes, all three sites) of 17000 nM. Besides, at human MTAP (apo) [1] (setting [6]), the ΔG was -6.51 kcal/mol and -6.51 ± 0.06 kcal/mol; the ΔHHepes is -8.7 ± 0.3 kcal/mol; the “−TΔSHepes” value is listed as 2.2 ± 0.3 kcal/mol. Besides, on human MTAP (apo) [2] (setting [8]), the “NumberProton” value is −0.91 ± 0.05; the “ΔHTris - ΔHHepes” value turned out to be 5.9 ± 0.3 kcal/mol; the “−TΔSTris” value was -3.74 ± 0.07 kcal/mol; the ΔHcorrection is -13.1 kcal/mol and -13.1 ± 0.4 kcal/mol. Also, the “−TΔScorrection” value at human MTAP (apo) [2] (setting [8]) was found to be 6.6 ± 0.4 kcal/mol. Moreover, the “ΔHTris [n]” value on human MTAP (apo) [2] (setting [9]) was −2.77 ± 0.04 [3] kcal/mol. The “protons absorbed from the buffer on binding to apo MTAP” value at human MTAP (apo) [2] (pH 7.4) stood at 0.91 ± 0.05.
